# Assay results from patent publication US7179806B2, “Δ1-pyrrolines used as pesticides” (Bayer Cropscience AG, priority 2000, dated 2007).
# Assay: log P determination by HPLC (reversed-phase C18, EEC Directive 79/831 Annex V.A8)
# Type: physicochemical
# Settings: pH 2.3, 0.1% aqueous phosphoric acid/acetonitrile gradient, 43° C
# Excerpt: Mobile phases for determination in the acidic range: 0.1% aqueous phosphoric acid, acetonitrile; linear gradient from 10% acetonitrile to 90% acetonitrile.
row,log P (pH 2.3),SMILES
1,2.40,CN(C)c1ncc(-c2ccc(C3CCC(c4c(F)cccc4F)=N3)cc2)cn1 (stereo not shown) [Example 42]

# Same assay, conditions: reversed-phase C18 HPLC column, pH 2.3, pH 2.3, 0.1% aqueous phosphoric acid/acetonitrile gradient, 43° C
row,SMILES,chromatographic logP
1,Fc1cccc(F)c1C1=NC(c2ccc(-c3ccc(N4CCN(Cc5ccc(Cl)cc5)CC4)nc3)cc2)CC1 (stereo not shown) [Example 173],1.83
2,Fc1cccc(F)c1C1=NC(c2ccc(-c3cnc(N4CCCCC4)nc3)cc2)CC1 (stereo not shown) [Example 35],3.4
3,Fc1cccc(F)c1C1=NC(c2ccc(-c3cnc(N4CCC(C(F)(F)F)CC4)nc3)cc2)CC1 (stereo not shown) [Example 122],3.84
4,Fc1cccc(F)c1C1=NC(c2ccc(-c3cnc(NCc4ccco4)nc3)cc2)CC1 (stereo not shown) [Example 184],2.31
5,CN(c1ccc(-c2ccc(C3CCC(c4c(F)cccc4F)=N3)cc2)nc1)S(=O)(=O)C(F)(F)F (stereo not shown) [Example 23],2.63
6,CC(C)Sc1ccc(-c2ccc(C3CCC(c4c(F)cccc4F)=N3)cc2)nn1 (stereo not shown) [Example 47],2.94
7,N#Cc1cccnc1N1CCN(c2ccc(-c3ccc(C4CCC(c5c(F)cccc5F)=N4)cc3)cn2)CC1 (stereo not shown) [Example 190],3.09
8,COC(CN(C)c1ncc(-c2ccc(C3CCC(c4c(F)cccc4F)=N3)cc2)cn1)OC (stereo not shown) [Example 206],2.32
9,Fc1cccc(F)c1C1=NC(c2ccc(-c3cnc(-n4cncn4)nc3)cc2)CC1 (stereo not shown) [Example 118],1.55
10,O=C1CCCCCN1c1ccc(-c2ccc(C3CCC(c4c(F)cccc4F)=N3)cc2)cn1 (stereo not shown) [Example 106],2.25
11,C=CCN(CC=C)c1ncc(-c2ccc(C3CCC(c4c(F)cccc4F)=N3)cc2)cn1 (stereo not shown) [Example 108],3.74
12,COc1ccc(CN2CCN(c3ccc(-c4ccc(C5CCC(c6c(F)cccc6F)=N5)cc4)cn3)CC2)cc1 (stereo not shown) [Example 174],1.59
13,Cc1cccc(N2CCN(c3ncc(-c4ccc(C5CCC(c6c(F)cccc6F)=N5)cc4)cn3)CC2)c1C (stereo not shown) [Example 134],5.78
14,CC1CN(c2ncc(-c3ccc(C4CCC(c5c(F)cccc5F)=N4)cc3)cn2)CC(C)O1 (stereo not shown) [Example 104],3
15,CCCCCCN(C(C)=O)c1ccc(-c2ccc(C3CCC(c4c(F)cccc4F)=N3)cc2)nn1 (stereo not shown) [Example 60],3.11
16,FC(F)=C(F)CCOc1ccc(-c2ccc(C3CCC(c4c(F)cccc4F)=N3)cc2)nn1 (stereo not shown) [Example 74],2.95
17,CC(=O)N(c1ccc(-c2ccc(C3CCC(c4c(F)cccc4F)=N3)cc2)nn1)C(C)C (stereo not shown) [Example 54],2.03
18,CCCCCCN(C)c1ncc(-c2ccc(C3CCC(c4c(F)cccc4F)=N3)cc2)cn1 (stereo not shown) [Example 99],4.94
19,CCOC(CN(C)c1ncc(-c2ccc(C3CCC(c4c(F)cccc4F)=N3)cc2)cn1)OCC (stereo not shown) [Example 207],3.09

row,SMILES,chromatographic logP
1,Fc1cccc(F)c1C1=N[C@@H](c2ccc(-c3ccc(N4CCOCC4)nc3)cc2)CC1 [Example 164],1.27
2,COCCN(CCOC)c1ncc(-c2ccc(C3CCC(c4c(F)cccc4F)=N3)cc2)cn1 (stereo not shown) [Example 107],2.48
3,N#Cc1ccccc1N1CCN(c2ncc(-c3ccc(C4CCC(c5c(F)cccc5F)=N4)cc3)cn2)CC1 (stereo not shown) [Example 146],3.78
4,O=S(=O)(N(c1ncc(-c2ccc(C3CCC(c4c(F)cccc4F)=N3)cc2)cn1)C1CC1)C(F)(F)F (stereo not shown) [Example 38],3.63
5,Fc1cccc(F)c1C1=NC(c2ccc(-c3cnc(-n4cccc4)nc3)cc2)CC1 (stereo not shown) [Example 166],3.58
6,CCCNc1ccc(-c2ccc(C3CCC(c4c(F)cccc4F)=N3)cc2)nn1 (stereo not shown) [Example 49],1.26
7,CCCCCC(=O)N(C)c1ccc(-c2ccc(C3CCC(c4c(F)cccc4F)=N3)cc2)nn1 (stereo not shown) [Example 68],3.24
8,CC(C)(C)c1ccc(CN2CCN(c3ncc(-c4ccc(C5CCC(c6c(F)cccc6F)=N5)cc4)cn3)CC2)cc1 (stereo not shown) [Example 139],3.3
9,CC1CC(C)CN(c2ncc(-c3ccc(C4CCC(c5c(F)cccc5F)=N4)cc3)cn2)C1 (stereo not shown) [Example 34],4.39
10,Fc1cccc(F)c1C1=NC(c2ccc(-c3ccc(OCCCC(F)(F)C(F)(F)F)nn3)cc2)CC1 (stereo not shown) [Example 73],3.58
11,CCCCCCC(=O)N(c1ccc(-c2ccc(C3CCC(c4c(F)cccc4F)=N3)cc2)nn1)C1CCCCC1 (stereo not shown) [Example 59],4.35
12,Fc1cccc(F)c1C1=NC(c2ccc(-c3ncc(Cl)cn3)cc2)CC1 (stereo not shown) [Example 218],2.87
13,CCC(CC)N1CCN(c2ccc(-c3ccc(C4CCC(c5c(F)cccc5F)=N4)cc3)cn2)CC1 (stereo not shown) [Example 138],1.39
14,Fc1cccc(F)c1C1=NC(c2ccc(-c3cnc(OCC4CC4)nc3)cc2)CC1 (stereo not shown) [Example 200],2.74
15,N#Cc1ccccc1N1CCN(c2ccc(-c3ccc(C4CCC(c5c(F)cccc5F)=N4)cc3)cn2)CC1 (stereo not shown) [Example 133],2.3
16,Fc1cccc(F)c1C1=NC(c2ccc(-c3ccc(OCC(F)(F)F)nc3)cc2)CC1 (stereo not shown) [Example 20],3.66
17,CCN(Cc1ccc(-c2ccc(C3CCC(c4c(F)cccc4F)=N3)cc2)nc1)S(=O)(=O)C(F)(F)F (stereo not shown) [Example 17],3.35
18,O=C1CCN(c2ncc(-c3ccc(C4CCC(c5c(F)cccc5F)=N4)cc3)cn2)CC1 (stereo not shown) [Example 214],2

# Continued, values first:
row,chromatographic logP,SMILES
1,3.03,C[C@@H]1CN(c2ncc(-c3ccc(C4CCC(c5c(F)cccc5F)=N4)cc3)cn2)C[C@H](C)O1 (stereo partly shown) [Example 137]
2,2,CC(=O)c1ccc(-c2ccc(C3CCC(c4c(F)cccc4F)=N3)cc2)nc1 (stereo not shown) [Example 211]
3,2.28,Cc1ccc(CN2CCN(c3ncc(-c4ccc(C5CCC(c6c(F)cccc6F)=N5)cc4)cn3)CC2)cc1 (stereo not shown) [Example 141]
4,0.95,"Clc1ccc(NC2CCCCC2)nn1 [III-15, N-(6-chloro-3-pyridazinyl)-N-cyclohexylamine]"
5,2.29,CN(C(=O)C(C)(C)C)c1ccc(-c2ccc(C3CCC(c4c(F)cccc4F)=N3)cc2)nn1 (stereo not shown) [Example 56]
6,1.92,Fc1cccc(F)c1C1=NC(c2ccc(-c3cnc(N4CCN(Cc5ccccc5)CC4)nc3)cc2)CC1 (stereo not shown) [Example 152]
7,3.59,CCN(Cc1ccco1)c1ncc(-c2ccc(C3CCC(c4c(F)cccc4F)=N3)cc2)cn1 (stereo not shown) [Example 183]
8,2.5,CC(C)Oc1ccc(-c2ccc(C3CCC(c4c(F)cccc4F)=N3)cc2)nn1 (stereo not shown) [Example 46]
9,2.15,"Brc1cnc(N2CCOCC2)nc1 [III-5, 4-(5-bromo-2-pyrimidinyl)morpholine]"
10,1.48,CN1CCN(c2ncc(-c3ccc(C4CCC(c5c(F)cccc5F)=N4)cc3)cn2)CC1 (stereo not shown) [Example 147]
11,4.38,"CCCN(CC)c1ncc(Br)cn1 [III-3, N-(5-bromo-2-pyrimidinyl)-N-ethyl-N-propylamine]"
12,3.06,CN(Cc1ccc(-c2ccc(C3CCC(c4c(F)cccc4F)=N3)cc2)nc1)S(=O)(=O)C(F)(F)F (stereo not shown) [Example 13]
13,1.49,Fc1cccc(F)c1C1=NC(c2ccc(-c3ccc(N4CCCCC4)nc3)cc2)CC1 (stereo not shown) [Example 111]
14,3.9,Cc1nc(-c2ccc(C3CCC(c4c(F)cccc4F)=N3)cc2)nc(C)c1Cl (stereo not shown) [Example 219]
15,2.23,CC(C)(C)c1ccc(CN2CCN(c3ccc(-c4ccc(C5CCC(c6c(F)cccc6F)=N5)cc4)cn3)CC2)cc1 (stereo not shown) [Example 176]
16,3.13,Fc1cccc(F)c1C1=NC(c2ccc(-c3ccc(OC(F)F)nc3)cc2)CC1 (stereo not shown) [Example 127]
17,1.23,CCN(C)c1ccc(-c2ccc(C3CCC(c4c(F)cccc4F)=N3)cc2)nn1 (stereo not shown) [Example 75]
18,3.48,CC(C)N(Cc1ccc(-c2ccc(C3CCC(c4c(F)cccc4F)=N3)cc2)nc1)S(=O)(=O)C(F)(F)F (stereo not shown) [Example 14]

row,chromatographic logP,SMILES
1,1.64,Fc1ccc(CN2CCN(c3ccc(-c4ccc(C5CCC(c6c(F)cccc6F)=N5)cc4)cn3)CC2)cc1 (stereo not shown) [Example 172]
2,3.77,Fc1cccc(F)c1C1=NC(c2ccc(-c3ccc(OCC(F)(F)F)nn3)cc2)CC1 (stereo not shown) [Example 45]
3,3.1,CN(Cc1ccco1)c1ncc(-c2ccc(C3CCC(c4c(F)cccc4F)=N3)cc2)cn1 (stereo not shown) [Example 182]
4,2.51,Fc1cccc(F)c1C1=NC(c2ccc(-c3cnc(N4CCC5(CC4)OCCO5)nc3)cc2)CC1 (stereo not shown) [Example 187]
5,2.05,"FC(F)(F)COc1ccc(Cl)nn1 [III-19, 3-chloro-6-(2,2,2-trifluoroethoxy)pyridazine]"
6,1.44,Fc1cccc(F)c1C1=NC(c2ccc(-c3ccc(N4CCOCC4)nc3)cc2)CC1 (stereo not shown) [Example 21]
7,2.34,"CC(C)Sc1ccc(Cl)nn1 [III-20, 6-chloro-3-pyridazinyl isopropyl sulphide]"
8,2.79,Fc1cccc(F)c1C1=NC(c2ccc(-c3cnc(Cc4ccccc4)nc3)cc2)CC1 (stereo not shown) [Example 91]
9,1.98,Fc1cccc(F)c1C1=NC(c2ccc(-c3cnc(Cl)nc3)cc2)CC1 (stereo not shown) [Example 27]
10,2.12,Fc1cccc(F)c1C1=NC(c2ccc(-c3cnc(N4CCN(CC5CCCCC5)CC4)nc3)cc2)CC1 (stereo not shown) [Example 123]
11,1.47,CCOCCN1CCN(c2ncc(-c3ccc(C4CCC(c5c(F)cccc5F)=N4)cc3)cn2)CC1 (stereo not shown) [Example 125]
12,3.39,O=S(=O)(N(Cc1ccc(-c2ccc(C3CCC(c4c(F)cccc4F)=N3)cc2)nc1)C1CC1)C(F)(F)F (stereo not shown) [Example 15]
13,4.58,CCC1CCN(c2ncc(-c3ccc(C4CCC(c5c(F)cccc5F)=N4)cc3)cn2)CC1 (stereo not shown) [Example 121]
14,2.02,CCN(CC)C(=O)c1ccc(-c2ccc(C3CCC(c4c(F)cccc4F)=N3)cc2)nc1 (stereo not shown) [Example 10]
15,1.95,O=Cc1ccc(-c2ccc(C3CCC(c4c(F)cccc4F)=N3)cc2)nc1 (stereo not shown) [Example 221]
16,2.36,"O=C(OCc1ccccc1)N1CCN(c2ccc(Cl)nn2)CC1 [III-13, benzyl 4-(6-chloro-3-pyridazinyl)-1-piperazinecarboxylate]"
17,1.74,N#CCc1ccc(-c2ccc(C3CCC(c4c(F)cccc4F)=N3)cc2)nc1 (stereo not shown) [Example 6]
